Source: ChEMBL document CHEMBL6103594, “Synthesis and evolution of 16-membered macrolide carrimycin derivatives as a novel class of anti-HCoV-OC43 agents targeting viral FSE RNA” (Eur J Med Chem, 2025)
pEC50: −log10 of the molar value.

Assays:
Human coronavirus OC43 = test: Antiviral activity against HCoV-OC43 infected in human NCI-H460 cells incubated for 72 hrs by CCK8 assay; type: functional, organism-based; conditions: Betacoronavirus 1, NCI-H460, 72 h
[1] = Cytotoxicity against human NCI-H460 cells incubated for 72 hrs by CCK8 assay; type: toxicity, cell-based; conditions: read-out: EC50
[2] = Selectivity index, ratio of CC50 for cytotoxicity against human NCI-H460 cells to EC50 for antiviral activity against HCoV-OC43 infected in human NCI-H460 cells; type: toxicity, cell-based, NCI-460; conditions: read-out: Ratio CC50/EC50

| SMILES | pEC50 (Human coronavirus OC43) | CC50 at 72 h [1] | selectivity ratio [2] |
| --- | --- | --- | --- |
| CO[C@@H]1[C@@H](O[C@@H]2O[C@H](C)[C@@H](O[C@H]3C[C@@](C)(O)[C@@H](O)[C@H](C)O3)[C@H](N(C)C)[C@H]2OC(=O)CC(C)C)[C@@H](CC=O)C[C@@H](C)[C@@H](O[C@H]2CC[C@H](N(C)C)[C@@H](C)O2)/C=C/C=C/C[C@@H](C)OC(=O)C[C@H]1O | 5.32 | 17.1 µM | 3.5 |
| CO[C@@H]1[C@@H](O[C@@H]2O[C@H](C)[C@@H](O[C@H]3C[C@@](C)(O)[C@@H](O)[C@H](C)O3)[C@H](N(C)C)[C@H]2OC(=O)c2ccc(F)c(C(F)(F)F)c2)[C@@H](CC=O)C[C@@H](C)[C@@H](O[C@H]2CC[C@H](N(C)C)[C@@H](C)O2)/C=C/C=C/C[C@@H](C)OC(=O)C[C@H]1O | 5.75 | 5.52 µM | 3.1 |
| CCCC(=O)O[C@H]1[C@H](O[C@H]2[C@@H](CC=O)C[C@@H](C)[C@@H](O[C@H]3CC[C@H](N(C)C)[C@@H](C)O3)/C=C/C=C/C[C@@H](C)OC(=O)C[C@@H](O)[C@@H]2OC)O[C@H](C)[C@@H](O[C@H]2C[C@@](C)(O)[C@@H](O)[C@H](C)O2)[C@@H]1N(C)C | 5.06 | 68 µM | 7.8 |
| CCCCC(=O)O[C@H]1[C@H](O[C@H]2[C@@H](CC=O)C[C@@H](C)[C@@H](O[C@H]3CC[C@H](N(C)C)[C@@H](C)O3)/C=C/C=C/C[C@@H](C)OC(=O)C[C@@H](O)[C@@H]2OC)O[C@H](C)[C@@H](O[C@H]2C[C@@](C)(O)[C@@H](O)[C@H](C)O2)[C@@H]1N(C)C | 5.27 | 33.5 µM | 6.2 |
| CO[C@@H]1[C@@H](O[C@@H]2O[C@H](C)[C@@H](O[C@H]3C[C@@](C)(O)[C@@H](O)[C@H](C)O3)[C@H](N(C)C)[C@H]2OC(=O)c2ccc(C(F)(F)F)cc2)[C@@H](CC=O)C[C@@H](C)[C@@H](O[C@H]2CC[C@H](N(C)C)[C@@H](C)O2)/C=C/C=C/C[C@@H](C)OC(=O)C[C@H]1O | 5.22 | 6.74 µM | 1.1 |
| COc1ccc(CC(=O)O[C@H]2[C@H](C)O[C@@H](O[C@H]3[C@H](N(C)C)[C@@H](OC(C)=O)[C@H](O[C@H]4[C@@H](CC=O)C[C@@H](C)[C@@H](O[C@H]5CC[C@H](N(C)C)[C@@H](C)O5)/C=C/C=C/C[C@@H](C)OC(=O)C[C@@H](O)[C@@H]4OC)O[C@@H]3C)C[C@@]2(C)O)cc1 | < 5.20 | 13.1 µM | < 2.1 |
| CO[C@@H]1[C@@H](O[C@@H]2O[C@H](C)[C@@H](O[C@H]3C[C@@](C)(O)[C@@H](OC(=O)CC(C)C)[C@H](C)O3)[C@H](N(C)C)[C@H]2OC(C)=O)[C@@H](CC=O)C[C@@H](C)[C@@H](O[C@H]2CC[C@H](N(C)C)[C@@H](C)O2)/C=C/C=C/C[C@@H](C)OC(=O)C[C@H]1O | 5.10 | 25.7 µM | 3.3 |
| CO[C@@H]1[C@@H](O[C@@H]2O[C@H](C)[C@@H](O[C@H]3C[C@@](C)(O)[C@@H](O)[C@H](C)O3)[C@H](N(C)C)[C@H]2OC(C)=O)[C@@H](CC=O)C[C@@H](C)[C@@H](O[C@H]2CC[C@H](N(C)C)[C@@H](C)O2)/C=C/C=C/C[C@@H](C)OC(=O)C[C@H]1O | 4.53 | > 200 µM | > 6.71 |
| CO[C@@H]1[C@@H](O[C@@H]2O[C@H](C)[C@@H](O[C@H]3C[C@@](C)(O)[C@@H](O)[C@H](C)O3)[C@H](N(C)C)[C@H]2OC(=O)c2ccc(F)cc2C(F)(F)F)[C@@H](CC=O)C[C@@H](C)[C@@H](O[C@H]2CC[C@H](N(C)C)[C@@H](C)O2)/C=C/C=C/C[C@@H](C)OC(=O)C[C@H]1O | 5.92 | 3.54 µM | 3 |
